29 molecules from patent publication US11584765B2 (priority 2017, dated 2023) can be followed below.

This assay deals with C57BL/6 mice. Description: animal or person. The assay is classed as in vivo. The settings on record: Mus musculus, sc, 0.5 h, s.c. administration, 30 min, 55° C. water, read-out: ED50 (mg/kg) at 30 min on C57BL/6 mice in Warm-water Tail-flick Test. A general note: Hot-plate and tail-flick tests time the reaction to a heat stimulus.

Consider `CC(C)(c1cccnc1)N1CCC(CCc2cccs2)(c2ccccn2)CC1` [Compound 396, 2-(1-(2-(pyridin-3-yl)propan-2-yl)-4-(2-(thiophen-2-yl)ethyl)piperidin-4-yl)pyridine], for which the ED50 is < 10 mg/kg.
Regarding `Cc1ccc(CN2C3CCC2CC(CCc2cccs2)(c2ccccn2)C3)cn1` (centres unmarked) [Compound 397, 8-((6-methylpyridin-3-yl)methyl)-3-(pyridin-2-yl)-3-(2-(thiophen-2-yl)ethyl)-8-azabicyclo[3.2.1]octane], the ED50 was > 10 mg/kg.
The same measure for `CCOC[C@@]1(CCc2ccc(F)cn2)CCN(C2(c3cnc4c(c3)CCCC4)CC2)C1` [Compound 398, (S)-3-(1-(3-(ethoxymethyl)-3-(2-(5-fluoropyridin-2-yl)ethyl)pyrrolidin-1-yl)cyclopropyl)-5,6,7,8-tetrahydroquinoline]: < 10 mg/kg; for `CCOCC1(CCc2ccccc2)CCN(C(CC)(CC)c2ccc(C)nc2)CC1` [Compound 399, 5-(3-(4-(ethoxymethyl)-4-phenethylpiperidin-1-yl)pentan-3-yl)-2-methylpyridine]: > 10 mg/kg; for `CCOCC1(CCc2ccccc2)CCN(C(CC)c2cnc(C)cc2CC)CC1` (centres unmarked) [Compound 400, 5-(1-(4-(ethoxymethyl)-4-phenethylpiperidin-1-yl)propyl)-4-ethyl-2-methylpyridine]: < 10 mg/kg.
The same measure for `CCOC(C)(C)[C@@]1(CCc2cccs2)CCN(C(C)(C)c2ccc(C)nc2)C1` [Compound 402, (S)-5-(2-(3-(2-ethoxypropan-2-yl)-3-(2-(thiophen-2-yl)ethyl)pyrrolidin-1-yl)propan-2-yl)-2-methylpyridine]: < 10 mg/kg.
Consider `CCOC(C)(C)[C@@]1(CCc2cccs2)CCN(C(C)c2ccc(C)nc2C)C1` (stereo partly drawn) [Compound 403, 3-(1-((S)-3-(2-ethoxypropan-2-yl)-3-(2-(thiophen-2-yl)ethyl)pyrrolidin-1-yl)ethyl)-2,6-dimethylpyridine], for which the ED50 was < 10 mg/kg.
The same measure for `CCOC[C@@]1(CCc2cccs2)CCN(Cc2c(C)ccnc2C)C1` [Compound 404, (S)-3-((3-(ethoxymethyl)-3-(2-(thiophen-2-yl)ethyl)pyrrolidin-1-yl)methyl)-2,4-dimethylpyridine]: < 10 mg/kg; for `CCOC[C@@]1(CCc2cccs2)CCN(Cc2cccnn2)C1` [Compound 405, (S)-3-((3-(ethoxymethyl)-3-(2-(thiophen-2-yl)ethyl)pyrrolidin-1-yl)methyl)pyridazine]: > 10 mg/kg; for `CCOC[C@@]1(CCc2cccnn2)CCN(Cc2cccnc2)C1` [Compound 406, (S)-3-(2-(3-(ethoxymethyl)-1-(pyridin-3-ylmethyl)pyrrolidin-3-yl)ethyl)pyridazine]: > 10 mg/kg.
As to `CCOC[C@@]1(CCc2ccc(C)s2)CCN(Cc2cnn(C)c2)C1` [Compound 407, (S)-4-((3-(ethoxymethyl)-3-(2-(5-methylthiophen-2-yl)ethyl)pyrrolidin-1-yl)methyl)-1-methyl-1H-pyrazole], the ED50 was < 10 mg/kg.
Take `CCOC[C@@]1(CCc2ccc(C)s2)CCN(Cc2ccc(C)nc2)C1` [Compound 408, (S)-5-((3-(ethoxymethyl)-3-(2-(5-methylthiophen-2-yl)ethyl)pyrrolidin-1-yl)methyl)-2-methylpyridine]: the ED50 was < 10 mg/kg.
In the case of `CCOC[C@@]1(CCc2ccc(C)s2)CCN(Cc2ccc(C)nc2C)C1` [Compound 409, (S)-3-((3-(ethoxymethyl)-3-(2-(5-methylthiophen-2-yl)ethyl)pyrrolidin-1-yl)methyl)-2,6-dimethylpyridine] it was < 10 mg/kg.
The same measure for `c1ccc(C2(CCc3cccs3)CCN(Cc3cccnc3)CC2)nc1` [Compound 410, 2-(1-(pyridin-3-ylmethyl)-4-(2-(thiophen-2-yl)ethyl)piperidin-4-yl)pyridine]: < 10 mg/kg; for `Cc1ccc(C(C)(C)N2CC[C@@](CO)(CCc3cccs3)C2)cn1` [Compound 411, (S)-(1-(2-(6-methylpyridin-3-yl)propan-2-yl)-3-(2-(thiophen-2-yl)ethyl)pyrrolidin-3-yl)methanol]: < 10 mg/kg.
The same measure for `OC[C@@]1(CCc2cccs2)CCN(Cc2cccnc2)C1` [Compound 412, (S)-(1-(pyridin-3-ylmethyl)-3-(2-(thiophen-2-yl)ethyl)pyrrolidin-3-yl)methanol]: < 10 mg/kg.
Consider `Cc1ccc(CN2CC[C@@](CO)(CCc3cccs3)C2)cn1` [Compound 413, (S)-(1-((6-methylpyridin-3-yl)methyl)-3-(2-(thiophen-2-yl)ethyl)pyrrolidin-3-yl)methanol], for which the ED50 is < 10 mg/kg.
For the molecule `CC(c1cccnc1)N1CC[C@@](CO)(CCc2cccs2)C1` (stereo partly drawn) [Compound 414, ((3S)-1-(1-(pyridin-3-yl)ethyl)-3-(2-(thiophen-2-yl)ethyl)pyrrolidin-3-yl)methanol], the ED50 was < 10 mg/kg.
The same measure for `CC(C)(c1cccnc1)N1CC[C@@](CO)(CCc2cccs2)C1` [Compound 415]: < 10 mg/kg; for `CCOC[C@@]1(CCc2cccs2)CCN(Cc2c(C)cc(C)nc2C)C1` [Compound 416, (S)-3-((3-(ethoxymethyl)-3-(2-(thiophen-2-yl)ethyl)pyrrolidin-1-yl)methyl)-2,4,6-trimethylpyridine]: < 10 mg/kg; for `Cn1cc(CN2CCC(CCc3ccccc3)(c3ccccn3)CC2)cn1` [Compound 417, 2-(1-((1-methyl-1H-pyrazol-4-yl)methyl)-4-phenethylpiperidin-4-yl)pyridine]: < 10 mg/kg.
Turning to `Cc1ccc(CN2[C@@H](C)CC(CCc3ccc(F)cc3)(c3ccccn3)C[C@@H]2C)cn1` (stereo partly drawn) [Compound 418, 5-(((2S,6S)-4-(4-fluorophenethyl)-2,6-dimethyl-4-(pyridin-2-yl)piperidin-1-yl)methyl)-2-methylpyridine], the ED50 was > 10 mg/kg.
The same measure for `CCOC[C@@]1(COc2ccccc2)CCN(Cc2ccc(C)nc2)C1` [Compound 419, (R)-5-((3-(ethoxymethyl)-3-(phenoxy-methyl)pyrrolidin-1-yl)methyl)-2-methylpyridine]: < 10 mg/kg; for `CCOC[C@@]1(CCc2ccccn2)CCN(Cc2cccnc2)C1` [Compound 420]: < 10 mg/kg; for `CCOC[C@@]1(CN(C)c2ccccc2)CCN(Cc2ccc(C)nc2)C1` [Compound 421, (S)-N-((3-(ethoxymethyl)-1-((6-methylpyridin-3-yl)methyl)pyrrolidin-3-yl)methyl)-N-methylaniline]: < 10 mg/kg.
Take `CCOC[C@@]1(COc2ccc(F)cc2)CCN(Cc2ccc(C)nc2)C1` [Compound 426, (R)-5-((3-(ethoxymethyl)-3-((4-fluoro-phenoxy)methyl)pyrrolidin-1-yl)methyl)-2-methylpyridine]: the ED50 is < 10 mg/kg.
The same measure for `CCOCC1(CCC2CC2)CCN(Cc2ccc(C)nc2)C1` (centres unmarked) [Compound 427, 5-((3-(2-cyclopropylethyl)-3-(ethoxy-methyl)pyrrolidin-1-yl)methyl)-2-methylpyridine]: < 10 mg/kg; for `CCOC[C@@]1(CCc2cccs2)CCN(Cc2cccnc2C)C1` [Compound 428, (S)-3-((3-(ethoxymethyl)-3-(2-(thiophen-2-yl)ethyl)pyrrolidin-1-yl)methyl)-2-methylpyridine]: < 10 mg/kg; for `CCOCC1(CCc2cccs2)CN(Cc2ccc(C)nc2)C1` [Compound 429, 5-((3-(ethoxymethyl)-3-(2-(thiophen-2-yl)ethyl)azetidin-1-yl)methyl)-2-methylpyridine]: < 10 mg/kg.
